25 compounds from US8124647B2 (priority 2002, dated 2012) can be followed below.

Where two headings read alike, the source gives them in different places. Where only a bound is given, the exact number is not on record here.

For the test, the target named is T1, human androgen receptor (Homo sapiens, UniProt P10275).
T1 construct: expressed in transfected cells; host or cells: CHO cells, cell line CHO-AR-pMMTV-LUC 1G12-A5-CA
T1 sequence (P10275 1-920): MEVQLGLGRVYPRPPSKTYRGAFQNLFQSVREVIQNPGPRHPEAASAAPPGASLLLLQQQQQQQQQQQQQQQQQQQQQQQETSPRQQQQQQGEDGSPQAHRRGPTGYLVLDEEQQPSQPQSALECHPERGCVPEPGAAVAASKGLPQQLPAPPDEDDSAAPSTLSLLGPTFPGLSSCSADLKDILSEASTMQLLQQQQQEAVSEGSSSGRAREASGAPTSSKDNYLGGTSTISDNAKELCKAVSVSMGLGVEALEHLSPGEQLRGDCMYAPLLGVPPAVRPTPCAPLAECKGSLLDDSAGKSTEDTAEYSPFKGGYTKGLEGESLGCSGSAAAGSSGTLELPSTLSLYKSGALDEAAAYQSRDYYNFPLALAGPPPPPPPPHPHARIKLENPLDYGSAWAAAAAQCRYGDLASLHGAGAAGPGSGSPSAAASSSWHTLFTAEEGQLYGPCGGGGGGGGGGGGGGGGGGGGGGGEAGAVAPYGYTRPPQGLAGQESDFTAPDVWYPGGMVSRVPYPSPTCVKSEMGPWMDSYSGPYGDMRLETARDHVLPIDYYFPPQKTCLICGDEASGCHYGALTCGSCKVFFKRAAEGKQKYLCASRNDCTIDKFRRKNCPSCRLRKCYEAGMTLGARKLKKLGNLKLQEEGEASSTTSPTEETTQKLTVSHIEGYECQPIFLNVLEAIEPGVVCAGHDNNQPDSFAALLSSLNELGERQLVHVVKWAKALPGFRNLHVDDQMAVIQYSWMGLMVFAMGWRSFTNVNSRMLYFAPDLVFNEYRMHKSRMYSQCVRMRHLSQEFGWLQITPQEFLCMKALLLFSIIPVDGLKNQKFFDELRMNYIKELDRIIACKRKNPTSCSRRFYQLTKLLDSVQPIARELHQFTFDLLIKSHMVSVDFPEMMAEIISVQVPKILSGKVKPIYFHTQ
As to the kind of experiment: androgenic activity (EC50, potency, efficacy), transactivation bioassay in CHO-AR-pMMTV-LUC cells in the presence of 0.1 μmol/l onapristone (Table 5). It counts as cell-based. The note with it: for Emax: read-out: ago efficacy; for ago potency: potency expressed as percentage of DHT activity, in the presence of 0.1 μmol/l onapristone. Here is the method: The androgenic activity (EC50, potency, and efficacy) of the compounds in Table 5 was determined in an in vitro bioassay of Chinese hamster ovary (CHO) cells stably transfected with the human androgen receptor expression plasmid and a reporter plasmid in which the MMTV promoter is linked to the luciferase reporter gene. The cell line CHO-AR-pMMTV-LUC 1G12-A5-CA is described in Schoonen et al. (J. Steroid Biochem. Moles. Biol. […]; 74: 213-222). The androgen receptor activity of compounds was determined in the presence of 0.1 μmol/l onapristone. The maximal efficacy in the presence of 100 nmol/l DHT was set as 100%. The potencies are expressed as percentage of DHT activity.

Setting [1] is: maximal intrinsic activity, activity in the presence of 100 nM DHT set at 1.00, CHO-AR-pMMTV-LUC cells, 0.1 μmol/l onapristone.

As for `O=[N+]([O-])c1ccccc1Sc1cn(Cc2cc(F)cc(F)c2)c2cc(NS(=O)(=O)c3ccsc3)ccc12` [Compound 107, Thiophene-3-sulfonic acid [1-(3,5-difluoro-benzyl)-3-(2-nitro-phenylsulfanyl)-1H-indol-6-yl]-amide], under setting [1], the Emax is more than 80%. Also, for the setting “CHO-AR-pMMTV-LUC cells”, the ago potency result was “+ (between 1% and 5%)”.
For the compound `CC(=O)Nc1ccc2c(Sc3ccccc3[N+](=O)[O-])cn(Cc3ccccn3)c2c1` [Compound 101, N-[3-(2-Nitro-phenylsulfanyl]-1-pyridin-2-ylmethyl-1H-indol-6-yl]-acetamide], the Emax under setting [1] fell in the range of 50 to 80%. In addition, the ago potency entry (CHO-AR-pMMTV-LUC cells) was “+ (between 1% and 5%)”.
As for `N#Cc1cccc(Cn2cc(Sc3ccccc3[N+](=O)[O-])c3ccc(C#N)cc32)c1` [Compound 125, 1-(3-Cyano-benzyl)-3-(2-nitro-phenylsulfanyl)-1H-indole-6-carbonitrile], the Emax under setting [1] was more than 80%. Under “CHO-AR-pMMTV-LUC cells”, the ago potency result is “+ (between 1% and 5%)”.
With `CS(=O)(=O)Nc1ccc2c(Sc3ccccc3[N+](=O)[O-])cn(Cc3cc(F)cc(F)c3)c2c1` [Compound 106, N-[1-(3,5-Difluoro-benzyl)-3-(2-nitro-phenylsulfanyl)-1H-indol-6-yl]-methanesulfonamide], the Emax under setting [1] was more than 80%. Moreover, the ago potency entry (CHO-AR-pMMTV-LUC cells) is “+ (between 1% and 5%)”.
In the case of `N#Cc1ccc2c(Sc3ccccc3[N+](=O)[O-])cn(Cc3ccncn3)c2c1` [Compound 124, 3-(2-Nitro-phenylsulfanyl)-1-pyrimidin-4-ylmethyl-1H-indole-6-carbonitrile], under setting [1], the Emax is more than 80%. Also, the ago potency result (CHO-AR-pMMTV-LUC cells) is “++ (>5%)”.
In the case of `O=C(Nc1ccc2c(Sc3ccccc3[N+](=O)[O-])cn(Cc3cc(F)cc(F)c3)c2c1)C(F)F` [Compound 98, N-[1-(3,5-Difluoro-benzyl)-3-(2-nitro-phenylsulfanyl)-1H-indol-6-yl]-2,2-difluoro-acetamide], the Emax under setting [1] was in the range of 50 to 80%. Where the note is “CHO-AR-pMMTV-LUC cells”, the ago potency entry is given as “++ (>5%)”.
With `COc1ccc2c(Sc3ccccc3[N+](=O)[O-])cn(Cc3cc(F)cc(F)c3F)c2c1` [Compound 95, 6-Methoxy-3-(2-nitro-phenylsulfanyl)-1-(2,3,5-trifluoro-benzyl)-1H-indole], the Emax under setting [1] was more than 80%. Moreover, the ago potency entry (CHO-AR-pMMTV-LUC cells) is “± (between 0.1% and 1%)”.
Turning to `COc1ccc2c(Sc3ccccc3[N+](=O)[O-])cn(Cc3cncnc3)c2c1` [Compound 115, 6-Methoxy-3-(2-nitro-phenylsulfanyl)-1-pyrimidin-5-ylmethyl-1H-indole], the Emax under setting [1] lay in the range of 50 to 80%. Besides, where the note is “CHO-AR-pMMTV-LUC cells”, the ago potency entry is on record as “++ (>5%)”.
`O=C(NC1CC1)c1ccc2c(Sc3ccccc3[N+](=O)[O-])cn(Cc3cccnc3)c2c1` [Compound 114, 3-(2-Nitro-phenylsulfanyl)-1-pyridin-3-ylmethyl-1H-indole-6-carboxylic acid cyclopropylamide]: under setting [1], the Emax was more than 80%. Moreover, the ago potency entry (CHO-AR-pMMTV-LUC cells) was “+ (between 1% and 5%)”.
`COc1ccc2c(Sc3ccccc3[N+](=O)[O-])cn(Cc3ccncc3)c2c1` [Compound 93, 6-Methoxy-3-(2-nitro-phenylsulfanyl)-1-pyridin-4-ylmethyl-1H-indole]: the Emax under setting [1] fell in the range of 50 to 80%. The ago potency entry (CHO-AR-pMMTV-LUC cells) is “± (between 0.1% and 1%)”.
For the compound `CNC(=O)c1ccc2c(Sc3ccccc3[N+](=O)[O-])cn(Cc3cccnc3)c2c1` [Compound 112, 3-(2-Nitro-phenylsulfanyl)-1-pyridin-3-ylmethyl-1H-indole-6-carboxylic acid methylamide], under setting [1], the Emax is 20 to 50%. Besides, the ago potency entry (CHO-AR-pMMTV-LUC cells) is “+ (between 1% and 5%)”.
For `COc1ccc2c(Sc3ccccc3[N+](=O)[O-])cn(Cc3cnccn3)c2c1` [Compound 117, 6-Methoxy-3-(2-nitro-phenylsulfanyl)-1-pyrazin-2-ylmethyl-1H-indole], the Emax under setting [1] fell in the range of 50 to 80%. Also, under “CHO-AR-pMMTV-LUC cells”, the ago potency entry is “+ (between 1% and 5%)”.
In the case of `CNC(=O)c1ccc2c(Sc3ccccc3[N+](=O)[O-])cn(Cc3ccccn3)c2c1` [Compound 110, 3-(2-Nitro-phenylsulfanyl)-1-pyridin-2-ylmethyl-1H-indole-6-carboxylic acid methylamide], the Emax under setting [1] fell in the range of 50 to 80%. The ago potency result (CHO-AR-pMMTV-LUC cells) is “+ (between 1% and 5%)”.
On to `N#Cc1ccc2c(Sc3ccccc3[N+](=O)[O-])cn(Cc3cncnc3)c2c1` [Compound 123, 3-(2-Nitro-phenylsulfanyl)-1-pyrimidin-5-ylmethyl-1H-indole-6-carbonitrile], for which the Emax under setting [1] is more than 80%. For the same compound, the ago potency entry (CHO-AR-pMMTV-LUC cells) was “++ (>5%)”.
For `CCC(=O)Nc1ccc2c(Sc3ccccc3[N+](=O)[O-])cn(Cc3ccccn3)c2c1` [Compound 102, N-[3-(2-Nitro-phenylsulfanyl)-1-pyridin-2-ylmethyl-1H-indol-6-yl]-propionamide], under setting [1], the Emax was in the range of 50 to 80%. The ago potency entry (CHO-AR-pMMTV-LUC cells) was “+ (between 1% and 5%)”.
Turning to `NC(=O)c1ccc2c(Sc3ccccc3[N+](=O)[O-])cn(Cc3ccccn3)c2c1` [Compound 111, 3-(2-Nitro-phenylsulfanyl)-1-pyridin-2-ylmethyl-1H-indole-6-carboxylic acid amide], under setting [1], the Emax was 20 to 50%. In addition, the ago potency entry (CHO-AR-pMMTV-LUC cells) is “± (between 0.1% and 1%)”.
On to `N#Cc1ccc2c(Sc3ccccc3[N+](=O)[O-])cn(Cc3ccccn3)c2c1` [Compound 119, 3-(2-Nitro-phenylsulfanyl)-1-pyridin-2-ylmethyl-1H-indole-6-carbonitrile], for which the Emax under setting [1] was more than 80%. For the setting “CHO-AR-pMMTV-LUC cells”, the ago potency entry is given as “++ (>5%)”.
Regarding `N#Cc1ccc2c(Sc3ccccc3[N+](=O)[O-])cn(Cc3ccncc3)c2c1` [Compound 122, 3-(2-Nitro-phenylsulfanyl)-1-pyridin-4-ylmethyl-1H-indole-6-carbonitrile], under setting [1], the Emax lay in the range of 50 to 80%. Also, the ago potency result (CHO-AR-pMMTV-LUC cells) is “+ (between 1% and 5%)”.
`N#Cc1ccc2c(Sc3ccccc3[N+](=O)[O-])cn(Cc3cccnc3)c2c1` [Compound 121, 3-(2-Nitro-phenylsulfanyl)-1-pyridin-3-ylmethyl-1H-indole-6-carbonitrile]: the Emax under setting [1] is more than 80%. In addition, the ago potency entry (CHO-AR-pMMTV-LUC cells) was “+ (between 1% and 5%)”.
For `CCC(=O)Nc1ccc2c(Sc3ccccc3[N+](=O)[O-])cn(Cc3cccnc3)c2c1` [Compound 105, N-[3-(2-Nitro-phenylsulfany)-1-pyridin-3-ylmethyl-1H-indol-6-yl]-propionamide], under setting [1], the Emax fell in the range of 20 to 50%. For the setting “CHO-AR-pMMTV-LUC cells”, the ago potency result was “+ (between 1% and 5%)”.
Take `CN(C)C(=O)c1ccc2c(Sc3ccccc3[N+](=O)[O-])cn(Cc3ccccn3)c2c1` [Compound 109, 3-(2-Nitro-phenylsulfanyl)-1-pyridin-2-ylmethyl-1H-indole-6-carboxylic acid dimethylamide]: the Emax under setting [1] is more than 80%. Further, the ago potency entry (CHO-AR-pMMTV-LUC cells) is “+ (between 1% and 5%)”.
`Cn1cnc(S(=O)(=O)Nc2ccc3c(Sc4ccccc4[N+](=O)[O-])cn(Cc4cc(F)cc(F)c4)c3c2)c1` [Compound 108, 1-Methyl-1H-imidazole-4-sulfonic acid [1-(3,5-difluoro-benzyl)-3-(2-nitro-phenylsulfanyl)-1H-indol-6-yl]-amide]: under setting [1], the Emax is more than 80%. In addition, the ago potency entry (CHO-AR-pMMTV-LUC cells) is “+ (between 1% and 5%)”.
As to `COc1ccc2c(Sc3ccccc3[N+](=O)[O-])cn(Cc3ccc(Cl)nc3)c2c1` [Compound 96, 1-(6-Chloro-pyridin-3-ylmethyl)-6-methoxy-3-(2-nitro-phenylsulfanyl)-1H-indole], the Emax under setting [1] was in the range of 20 to 50%. The ago potency result (CHO-AR-pMMTV-LUC cells) is “± (between 0.1% and 1%)”.
Take `COc1ccc2c(Sc3ccccc3[N+](=O)[O-])cn(Cc3cc(F)c(F)c(F)c3)c2c1` [Compound 94, 6-Methoxy-3-(2-nitro-phenylsulfanyl)-1-(3,4,5-trifluoro-benzyl)-1H-indole]: under setting [1], the Emax is more than 80%. For the same compound, the ago potency entry (CHO-AR-pMMTV-LUC cells) was “+ (between 1% and 5%)”.
For `O=C(CF)Nc1ccc2c(Sc3ccccc3[N+](=O)[O-])cn(Cc3cc(F)cc(F)c3)c2c1` [Compound 97, N-[1-(3,5-Difluoro-benzyl)-3-(2-nitro-phenylsulfanyl)-1H-indol-6-yl]-2-fluoro-acetamide], the Emax is more than 80%. Besides, the ago potency entry (CHO-AR-pMMTV-LUC cells) is “+ (between 1% and 5%)”.
